# Assay results: patent US8609610B2, “Inhibitors of the trypsin-like site of the proteasome and methods of use thereof” (Trustees of Dartmouth College, priority 2011, dated 2013)
# Where two headings read alike, the source gives them in different places.
# Experiments:
# [1] = biological target: caspase-like site of 26S proteasomes (Oryctolagus cuniculus, UniProt A0A5F9DQW2); assay: Inhibition of purified 26S proteasomes, substrate Ac-nLPnLD-amc; format: biochemical, rabbit; conditions: >>30 no inhibition at 30 μM, >30 inhibition between 10 and 50% at 30 μM, read-out: IC50 for sites in 26S proteasomes: Casp-L
# [2] = tested on: T1, chymotrypsin-like sites (β5) of proteasome in MM cells; assay: PROTEASOMEGLO assay of proteasome inhibition in MM cells; format: cell-based; conditions: 6 hours, >>30 no inhibition at 30 μM, >30 inhibition 10-50% at 30 μM, read-out: IC50 for sites: Chym-L
# T1 construct: other: NCI-H929; bortezomib 100 nM 1 h; bortezomib 11 nM 1 h; bortezomib 3.7 nM 1 h; bortezomib 33 nM 1 h; other: NCI-H9
# [3] = biological target: T2, trypsin-like sites (β2) of proteasome in MM cells (Homo sapiens, UniProt Q99436); assay: as above; format: cell-based; conditions: for IC50: 6 hours, >>30 no inhibition at 30 μM, >30 inhibition 10-50% at 30 μM, read-out: IC50 for sites: Tr-L
# T2 construct: endogenous in cells; host or cells: NCI-H929, RPMI-8226 and other MM cell lines
# T2 sequence (Q99436 44-277): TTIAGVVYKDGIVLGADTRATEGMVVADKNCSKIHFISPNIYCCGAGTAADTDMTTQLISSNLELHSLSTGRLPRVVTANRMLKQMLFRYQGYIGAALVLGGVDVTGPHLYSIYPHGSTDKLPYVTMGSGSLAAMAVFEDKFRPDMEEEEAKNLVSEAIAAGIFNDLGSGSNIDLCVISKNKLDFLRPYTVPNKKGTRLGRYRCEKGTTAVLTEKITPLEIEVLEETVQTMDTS
# [4] = tested on: trypsin-like sites (β2) of proteasome in MM cells; assay: as above; format: cell-based
# [5] = biological target: T3, caspase-like sites (β1) of proteasome in MM cells (Homo sapiens, UniProt P28072+Q99436); assay: as above; format: cell-based; conditions: 6 hours, >>30 no inhibition at 30 μM, >30 inhibition 10-50% at 30 μM, read-out: IC50 for sites: Casp-L
# T3 sequence (P28072 35-239): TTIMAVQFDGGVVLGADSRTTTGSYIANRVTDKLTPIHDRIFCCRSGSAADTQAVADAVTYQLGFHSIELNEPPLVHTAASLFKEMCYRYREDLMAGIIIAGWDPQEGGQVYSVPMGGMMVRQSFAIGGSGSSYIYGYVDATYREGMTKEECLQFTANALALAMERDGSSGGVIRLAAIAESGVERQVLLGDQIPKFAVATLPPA
# T3 sequence (Q99436 44-277): T2 sequence (Q99436 44-277)
# [6] = tested on: NCI-H929 cells; assay: ALAMAR BLUE cell viability assay; format: cell-based
# How it was run: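 Myeloma lines were grown in RPMI-1640 with 10% FBS; viability of myeloma cells was read by ALAMAR BLUE mitochondrial dye conversion. PBMNC viability used CELL TITER-GLO ATP luminescence. Caspase-3/7 activity in NCI-H929 and MM1.R was measured with the APO-ONE homogeneous assay.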
# [7] = tested on: peripheral blood mononuclear cells (PBMNCs); assay: CELL TITER-GLO viability of PBMNCs; format: cell-based; conditions: cells from three donors
# Description: (§1) RPMI-8226 and NCI-H929 cells were cultured in RPMI-1640 supplemented with 10% fetal bovine serum, penicillin, streptomycin, and plasmocin in 5% CO2 humidified incubator. HEK-293T cells were cultured in DMEM containing 10% fetal calf serum, 10 units/mL penicillin, and 10 μg/mL streptomycin in a 7% CO2 humidified incubator. Viability of multiple myeloma cells was measured with ALAMAR BLUE mitochondrial dye conversion assay. Viability of peripheral blood mononuclear cells (PBMNCs) was measured using CELL TITER-GLO luminescent cell viability assay (Promega), which is based on quantification of ATP present in the cells. Caspase-3/7 activity was measured using APO-ONE 3/7 homogeneous assay (Promega).
# [8] = tested on: MM cell lines NCI-H929, MM1.R, RPMI-8226, KMS-18, KMS-12-BM; assay: ALAMAR BLUE viability, panel of MM cell lines; format: cell-based
# Description: as §1
# In a parallel set of experiments, it was tested whether co-inhibiting caspase-like and trypsin-like sites suffices to induce cytotoxicity in the absence of inhibition of the chymotrypsin-like sites and whether such dual inhibition is a stronger sensitizer to LU-005 than inhibition of the trypsin-like sites alone. Four additional myeloma cell lines, MM1.R, RPMI-8226, KMS-18, and KMS-12-BM, were selected for these experiments. These cell lines vary up to 40-fold in their sensitivity to bortezomib and NC-005 (Britton, et al. (2009) supra). In all experiments, NC-022 was used at a concentration that inhibited trypsin-like activity by more than 90% after a 6-hour incubation.
# Chain of caspase-like site of 26S proteasomes (A0A5F9DQW2 1-212): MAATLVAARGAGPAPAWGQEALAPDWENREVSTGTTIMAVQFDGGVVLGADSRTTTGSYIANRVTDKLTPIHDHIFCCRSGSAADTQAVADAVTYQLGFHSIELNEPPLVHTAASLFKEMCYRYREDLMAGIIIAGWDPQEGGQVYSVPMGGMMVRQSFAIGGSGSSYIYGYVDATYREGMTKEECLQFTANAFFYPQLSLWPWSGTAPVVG
smiles,measurement,setting,value
"Cc1c(O)cccc1C(=O)N[C@H](C(=O)N[C@@H](CO)C(=O)N[C@@H](CCCNC(=N)N)C(=O)[C@@]1(C)CO1)C(C)C [NC-022, HMB-Val-Ser-Arg-ek]",IC50,[1],16 µM
same,IC50,[2]; NCI-H929 cells,> 30 µM
same,IC50,[2]; RPMI-8226 cells,> 30 µM
same,inhibition at 3 µM,"[3]; 3 μM NC-022, within 4-6 hours after addition",90%
same,inhibition of trypsin-like activity by NC-022 treatment,"[3]; NCI-H929 and KMS-12-BM, 5 hours after NC-022 addition",that trypsin-like activity was inhibited by >90% but inhibition of the chymotrypsin-like activity was not altered by NC-022 treatment.
same,inhibition of trypsin-like activity in live cells,[3]; NCI-H929 cells treated overnight,sub-micromolar concentrations
same,IC50,[3]; NCI-H929 cells,0.9 µM
same,IC50,[3]; RPMI-8226 cells,24 µM
same,difference in IC50 for trypsin-like activity between NCI-H929 and RPMI-8226,[4],25 fold
same,time to steady-state proteasome inhibition,[4]; RPMI-8226 cells,> 6 h
same,IC50,[5]; NCI-H929 cells,> 30 µM
same,IC50,[5]; RPMI-8226 cells,> 30 µM
same,sensitization: change of IC50 of LU-005,"[6]; LU-005 1 hour, then NC-022 48 hours, maximal at 3 μM NC-022",up to 8.5 fold
same,cell viability,"[6]; NCI-H929, 48 hours, even at concentrations that completely inhibited the trypsin-like sites",No loss of viability
same,sensitization of PBMNCs to bortezomib and carfilzomib,[7],did not sensitize cells
same,sensitization to LU-005 compared with NC-001,[8]; NCI-H929 and KMS-12-BM,more potent sensitizer than NC-001
same,reduction of the IC50 for LU-005,"[8]; all MM cell lines, NC-022 at concentration inhibiting trypsin-like activity >90% after 6 h",4-10 fold
same,reduction of cell viability,"[8]; continuous exposure to mixture of NC-022 and NC-001, both sites blocked by more than 90%",20-50%
same,sensitization of MM cells to LU-005,[8]; mixture of NC-001 and NC-022 after 1 hour LU-005,much stronger sensitizer than NC-022 alone
